Results on 21 compounds are retold here after PubChem BioAssay (NCI).

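Five concentrations, 48 hours, 96-well plates. GI50 = concentration required for 50% inhibition of growth. TGI: concentration producing complete growth inhibition.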 Where only a bound is given, the exact number is not on record here.

The first assay deals with SK-MEL-28 melanoma. The experiment in a line: growth of human tumour cells (NCI), 48 h.
As to `COc1ccc(Nc2nc3ccccc3nc2-c2cccs2)cc1`, the TGI is more than 100 µM.
On to `CC(CC(=O)Nc1ccc(NC(=O)CC(C)N=NC(N)=S)cc1)N=NC(N)=S` (stereo not drawn), for which the TGI is more than 100 µM.
With `C#CCC(N)(CO)C(=O)O` (stereo not drawn), the TGI is more than 100 µM.
Turning to `O=C(O)CCC(NC(=S)S)C(=O)O.[Na+].[Zn+2]` (stereo not drawn), the GI50 was more than 50 µM and the TGI is more than 50 µM.
For the compound `Cc1cn(C2OC(C)(CO)C(O)C2O)c(=O)[nH]c1=O` (stereo not drawn), the TGI is more than 100 µM.
Take `C[C@H](Cn1ncnn1)Nc1ncc2cc(Oc3ccc(F)cc3F)c(=O)n(C)c2n1`: the GI50 is more than 25 µM and the TGI was more than 25 µM.
For `CCCCCCCCCCCCCCCCCCNC(=O)[C@H]1CSC(c2cccs2)N1` (stereo partly drawn), the GI50 is 0.725 µM and the TGI was determined as 1.43 µM.
For the compound `Cn1c2ccccc2c2c(=O)c3ccccc3[nH]c21`, the GI50 was more than 100 µM and the TGI is more than 100 µM.

A further assay deals with SNB-75 CNS. The experiment in a line: growth of human tumour cells (NCI), 48 h.
Compound `CC1(c2ccccc2)CC(c2ccccc2)=NO1` (stereo not drawn) had a TGI of more than 100 µM.
In turn, `COc1cccc(/C=C2\CCC(C)(CN(C)C)C2=O)c1` (stereo not drawn) returned a TGI of more than 100 µM.
In the case of `CCN(CC)CCNC(=O)c1cn2ncnc(Oc3ccc(NC(=O)Nc4ccc(Cl)c(C(F)(F)F)c4)c(F)c3)c2c1C`, the GI50 is 0.412 µM and the TGI was found to be 1.97 µM.
Compound `Cl[Si]1(Cl)Oc2ccccc2O[Si](Cl)(Cl)Oc2ccccc2O1` registered a TGI of 99.1 µM.
`OC(c1ccc(Br)cc1)(c1cccs1)C1CC1` (stereo not drawn) showed a TGI of 66.2 µM.
For the compound `COc1ccc(-c2nnc(N3CCN(C(=O)CN4CCN(c5ccc(OC)cc5)CC4)CC3)nc2-c2ccc(OC)cc2)cc1`, the GI50 is 15.6 µM and the TGI amounted to 44.8 µM.
The like results for `C[n+]1c2ccccc2cc2c(CNC(CCCN=C(N)N)C(=O)O)cccc21` (stereo not drawn) were, in that order, 1.82 µM and 10.8 µM.
As to `Cc1cc2c(Br)cc(Br)c(O)c2nc1C(=O)c1ccccc1`, the TGI is more than 100 µM.
As to `Cn1cc(-c2csc(-c3cn(C)c4ccccc34)n2)c2cnccc21`, the GI50 was 4.08 µM and the TGI amounted to 16.9 µM.
For `COc1ccccc1/C=C/C(=O)/C=C/c1ccccc1O`, the GI50 was 0.964 µM and the TGI is 2.57 µM.
For the compound `CC(=O)[O-].CC(=O)[O-].CC(=O)[O-].CC(=O)[O-].[Mo+2].[Mo+2]`, the GI50 was 63.5 µM and the TGI is more than 100 µM.
`COc1ccc(Nc2nc3ccccc3nc2-c2cccs2)cc1` had a TGI of 82.2 µM.
Compound `CC(CC(=O)Nc1ccc(NC(=O)CC(C)N=NC(N)=S)cc1)N=NC(N)=S` (stereo not drawn) gave a TGI of more than 100 µM.
`C#CCC(N)(CO)C(=O)O` (stereo not drawn): the TGI was more than 100 µM.
As for `O=C(O)CCC(NC(=S)S)C(=O)O.[Na+].[Zn+2]` (stereo not drawn), the GI50 is more than 50 µM and the TGI is more than 50 µM.
The compound `Cc1cn(C2OC(C)(CO)C(O)C2O)c(=O)[nH]c1=O` (stereo not drawn) showed a TGI of more than 100 µM.
Turning to `C[C@H](Cn1ncnn1)Nc1ncc2cc(Oc3ccc(F)cc3F)c(=O)n(C)c2n1`, the GI50 is more than 25 µM and the TGI was more than 25 µM.
Regarding `CCCCCCCCCCCCCC(=O)OCC1OC(=O)CC1O` (stereo not drawn), the TGI is more than 100 µM.
On to `N=S(c1ccccc1)c1ccccc1[N+](=O)[O-]` (stereo not drawn), for which the TGI amounted to 95.1 µM.
As to `CCCCCCCCCCCCCCCCCCNC(=O)[C@H]1CSC(c2cccs2)N1` (stereo partly drawn), the GI50 was 0.811 µM and the TGI stood at 1.58 µM.
For `Cn1c2ccccc2c2c(=O)c3ccccc3[nH]c21`, the GI50 is 84.7 µM and the TGI was more than 100 µM.

The next assay deals with CAKI-1 renal. The experiment in a line: growth of human tumour cells (NCI), 48 h.
`CC1(c2ccccc2)CC(c2ccccc2)=NO1` (stereo not drawn) had a TGI of more than 100 µM.
In the case of `COc1cccc(/C=C2\CCC(C)(CN(C)C)C2=O)c1` (stereo not drawn), the TGI is more than 100 µM.
With `CCN(CC)CCNC(=O)c1cn2ncnc(Oc3ccc(NC(=O)Nc4ccc(Cl)c(C(F)(F)F)c4)c(F)c3)c2c1C`, the GI50 is 1.69 µM and the TGI stood at 3.13 µM.
Turning to `Cl[Si]1(Cl)Oc2ccccc2O[Si](Cl)(Cl)Oc2ccccc2O1`, the TGI was determined as 97.5 µM.
The same measure, in the same setting: the same measure for `OC(c1ccc(Br)cc1)(c1cccs1)C1CC1` (stereo not drawn): 69.6 µM.
As to `COc1ccc(-c2nnc(N3CCN(C(=O)CN4CCN(c5ccc(OC)cc5)CC4)CC3)nc2-c2ccc(OC)cc2)cc1`, the GI50 is 15.5 µM and the TGI was found to be 51.1 µM.
In the case of `C[n+]1c2ccccc2cc2c(CNC(CCCN=C(N)N)C(=O)O)cccc21` (stereo not drawn), the TGI worked out at 2.07 µM.
Compound `Cc1cc2c(Br)cc(Br)c(O)c2nc1C(=O)c1ccccc1` yielded a TGI of more than 100 µM.
As for `Cn1cc(-c2csc(-c3cn(C)c4ccccc34)n2)c2cnccc21`, the GI50 was 2.58 µM and the TGI is 9.12 µM.
Taken in the same sequence, the figures for `COc1ccccc1/C=C/C(=O)/C=C/c1ccccc1O` were 1.79 µM and 5.53 µM.
Regarding `CC(=O)[O-].CC(=O)[O-].CC(=O)[O-].CC(=O)[O-].[Mo+2].[Mo+2]`, the GI50 is more than 100 µM and the TGI was more than 100 µM.
Turning to `COc1ccc(Nc2nc3ccccc3nc2-c2cccs2)cc1`, the TGI is more than 100 µM.
In the case of `CC(CC(=O)Nc1ccc(NC(=O)CC(C)N=NC(N)=S)cc1)N=NC(N)=S` (stereo not drawn), the TGI was more than 100 µM.
Consider `C#CCC(N)(CO)C(=O)O` (stereo not drawn), for which the TGI was more than 100 µM.
With `O=C(O)CCC(NC(=S)S)C(=O)O.[Na+].[Zn+2]` (stereo not drawn), the GI50 is more than 50 µM and the TGI was more than 50 µM.
On to `Cc1cn(C2OC(C)(CO)C(O)C2O)c(=O)[nH]c1=O` (stereo not drawn), for which the TGI was more than 100 µM.
As for `C[C@H](Cn1ncnn1)Nc1ncc2cc(Oc3ccc(F)cc3F)c(=O)n(C)c2n1`, the GI50 is more than 25 µM and the TGI was more than 25 µM.
As for `CCCCCCCCCCCCCC(=O)OCC1OC(=O)CC1O` (stereo not drawn), the TGI was more than 100 µM.
Regarding `N=S(c1ccccc1)c1ccccc1[N+](=O)[O-]` (stereo not drawn), the TGI was 28.8 µM.
As to `CCCCCCCCCCCCCCCCCCNC(=O)[C@H]1CSC(c2cccs2)N1` (stereo partly drawn), the GI50 was 1.03 µM and the TGI was 2.09 µM.
In the case of `Cn1c2ccccc2c2c(=O)c3ccccc3[nH]c21`, the GI50 is more than 100 µM and the TGI is more than 100 µM.
